Experimental findings from patent US20180186742A1, “PICOLINAMIDES AS FUNGICIDES” (Dow AgroSciences LLC, priority 2017, published 2018) are described below.

Holding throughout (type): in vivo
Assay [1] has as its system Rhyncosporium secalis. The experiment in a line: Barley scald (RHYNSE), disease control on barley seedlings. As to conditions: Hordeum vulgare, 24 h, 1DP (1 Day Protectant) test at 100 ppm. As to the method: Technical grades of materials were dissolved in acetone, which were then mixed with nine volumes of water containing 110 ppm Triton X-100. The fungicide solutions were applied onto wheat seedlings using an automated booth sprayer to run-off. All sprayed plants were allowed to air dry prior to further handling. All fungicides were evaluated using the aforementioned method for their activity vs. all target diseases, unless stated otherwise. Wheat leaf blotch and brown rust activity were also evaluated using track spray applications, in which case the fungicides were formulated as EC formulations, containing 0.1% Trycol 5941 in the spray solutions. Barley seedlings (variety Harrington) were propagated in soil-less Metro mix, with each pot having 8 to 12 plants, and used in the test when first leaf was fully emerged. Test plants were inoculated by an aqueous spore suspension of Rhyncosporium secalis 24 hr after fungicide treatments. After inoculation the plants were kept in a dew room at 20° C. with 100% relative humidity for 48 hr. The plants were then transferred to a greenhouse set at 20° C. for disease to develop. Fungicide formulation, application and disease assessment on the sprayed leaves followed the procedures as described in the Example A.

For assay [2], the system named is Cercospora beticola. The experiment in a line: Leaf spot of sugar beets (CERCBE), disease control on sugar beet plants. As to conditions: 1DP test at 100 ppm, read-out: CERCBE disease control rating. As to the method: Technical grades of materials were dissolved in acetone, which were then mixed with nine volumes of water containing 110 ppm Triton X-100. The fungicide solutions were applied onto wheat seedlings using an automated booth sprayer to run-off. All sprayed plants were allowed to air dry prior to further handling. All fungicides were evaluated using the aforementioned method for their activity vs. all target diseases, unless stated otherwise. Wheat leaf blotch and brown rust activity were also evaluated using track spray applications, in which case the fungicides were formulated as EC formulations, containing 0.1% Trycol 5941 in the spray solutions. Sugar beet plants (variety HH88) were grown in soil-less Metro mix and trimmed regularly to maintain a uniform plant size prior to test. Plants were inoculated with a spore suspension 24 hr after fungicide treatments. Inoculated plants were kept in a dew chamber at 22° C. for 48 hr then incubated in a greenhouse set at 24° C. under a clear plastic hood with bottom ventilation until disease symptoms were fully expressed. Fungicide formulation, application and disease assessment on the sprayed leaves followed the procedures as described in the Example A.

Assay [3] concerns Glomerella lagenarium; Anamorph: Colletotrichum lagenarium. Kind of assay: Cucumber anthracnose (COLLLA), disease control on cucumber seedlings. The following applies: Colletotrichum orbiculare, 1DP test at 100 ppm, read-out: COLLLA disease control rating. As to the method: Technical grades of materials were dissolved in acetone, which were then mixed with nine volumes of water containing 110 ppm Triton X-100. The fungicide solutions were applied onto wheat seedlings using an automated booth sprayer to run-off. All sprayed plants were allowed to air dry prior to further handling. All fungicides were evaluated using the aforementioned method for their activity vs. all target diseases, unless stated otherwise. Wheat leaf blotch and brown rust activity were also evaluated using track spray applications, in which case the fungicides were formulated as EC formulations, containing 0.1% Trycol 5941 in the spray solutions. Cucumber seedlings (variety Bush Pickle) were propagated in soil-less Metro mix, with each pot having one plant, and used in the test when 12 to 14 days old. Test plants were inoculated with an aqueous spore suspension of Colletotrichum lagenarium 24 hr after fungicide treatments. After inoculation the plants were kept in a dew room at 22° C. with 100% relative humidity for 48 hr to permit spores to germinate and infect the leaf. The plants were then transferred to a growth room set at 22° C. for disease to develop. Fungicide formulation, application and disease assessment on the sprayed leaves followed the procedures as described in the Example A.

The test system of assay [4] is Uncinula necator. Kind of assay: Grape powdery mildew (UNCINE), disease control on grape seedlings. As to conditions: Erysiphe necator, 24 h, 1DP (1 Day Protectant) test at 100 ppm. The method, then:
Technical grades of materials were dissolved in acetone, which were then mixed with nine volumes of water containing 110 ppm Triton X-100. The fungicide solutions were applied onto wheat seedlings using an automated booth sprayer to run-off. All sprayed plants were allowed to air dry prior to further handling. All fungicides were evaluated using the aforementioned method for their activity vs. all target diseases, unless stated otherwise. Wheat leaf blotch and brown rust activity were also evaluated using track spray applications, in which case the fungicides were formulated as EC formulations, containing 0.1% Trycol 5941 in the spray solutions. Grape seedlings (variety Carignane) were grown in soil-less Metro mix, with one plant per pot, and used in the test when approximately 1 month old. Plants were inoculated 24 hr after fungicide treatment by shaking spores from infected leaves over test plants. Plants were maintained in a greenhouse set at 20° C. until disease was fully developed. Fungicide formulation, application and disease assessment on sprayed leaves followed the procedures as described in the Example A.

Assay [5] relates to Alternaria solani. Kind of assay: Tomato early blight (ALTESO), disease control on tomato plants. The following applies: 1DP test at 100 ppm, read-out: ALTESO disease control rating. The method, then: Technical grades of materials were dissolved in acetone, which were then mixed with nine volumes of water containing 110 ppm Triton X-100. The fungicide solutions were applied onto wheat seedlings using an automated booth sprayer to run-off. All sprayed plants were allowed to air dry prior to further handling. All fungicides were evaluated using the aforementioned method for their activity vs. all target diseases, unless stated otherwise. Wheat leaf blotch and brown rust activity were also evaluated using track spray applications, in which case the fungicides were formulated as EC formulations, containing 0.1% Trycol 5941 in the spray solutions. Tomato plants (variety Outdoor Girl) were propagated in soil-less Metro mix, with each pot having one plant, and used when 12 to 14 days old. Test plants were inoculated with an aqueous spore suspension of Alternaria solani 24 hr after fungicide treatments. After inoculation the plants were kept in 100% relative humidity (one day in a dark dew chamber followed by two to three days in a lighted dew chamber at 20° C.) to permit spores to germinate and infect the leaf. The plants were then transferred to a growth room at 22° C. for disease to develop. Fungicide formulation, application and disease assessment on the sprayed leaves followed the procedures as described in the Example A.

The test system of assay [6] is Magnaporthe grisea; Anamorph: Pyricularia oryzae. The experiment in a line: whole plant or invertebrate. As to conditions: 24 h, read-out: PYRIOR Disease Control.

In the case of `CCC(=O)Oc1c(OC)ccnc1C(=O)N[C@@H](C)C(=O)O[C@@H](C)[C@H](c1ccc(F)cc1C)C(C)C` [Compound 357], the pest or weed control at 100 ppm in assay [1] was below 80%; in assay [2], above 80%; in assay [3], above 80%; in assay [4] it was above 80%; in assay [5], below 80%; in assay [6] it was below 80%.

For the molecule `COc1ccnc(C(=O)N[C@@H](C)C(=O)O[C@@H](C)[C@H](c2ccccc2C)C(C)C)c1OC(=O)C(C)C` [Compound 375], the pest or weed control at 100 ppm in assay [1] is below 80%; in assay [2], above 80%; in assay [3], above 80%; in assay [4] it was above 80%; in assay [5], below 80%; in assay [6] it was above 80%.

As to `CCOC(=O)Oc1c(OC)ccnc1C(=O)N(C(=O)OCC)[C@@H](C)C(=O)O[C@@H](C)[C@H](c1ccc(F)cc1C)C(C)C` [Compound 371], the pest or weed control at 100 ppm was below 80% in assay [1]; above 80% in assay [2]; above 80% in assay [3]; above 80% in assay [4]; below 80% in assay [5]; below 80% in assay [6].

On to `COc1ccnc(C(=O)N[C@@H](C)C(=O)O[C@@H](C)[C@H](c2ccccc2C)C(C)C)c1OC(C)=O` [Compound 364], for which the pest or weed control at 100 ppm is below 80% in assay [1]; above 80% in assay [2]; above 80% in assay [3]; above 80% in assay [4]; below 80% in assay [5]; above 80% in assay [6].

Take `COc1ccnc(C(=O)N[C@@H](C)C(=O)O[C@@H](C)[C@H](c2ccc(F)cc2C)C(C)C)c1OC(=O)C(C)(C)C` [Compound 374]: the pest or weed control at 100 ppm in assay [1] was below 80%; in assay [2], above 80%; in assay [3], below 80%; in assay [4], above 80%; in assay [5] it was below 80%; in assay [6], below 80%.

For the molecule `CCC(C)C(=O)Oc1c(OC)ccnc1C(=O)N[C@@H](C)C(=O)O[C@@H](C)[C@H](c1ccc(F)cc1C)C(C)C` (stereo partly drawn) [Compound 355], the pest or weed control at 100 ppm is below 80% in assay [1]; above 80% in assay [2]; above 80% in assay [3]; above 80% in assay [4]; above 80% in assay [5]; below 80% in assay [6].

In the case of `COc1ccnc(C(=O)N[C@@H](C)C(=O)O[C@@H](C)[C@H](c2ccc(F)cc2C)C(C)C)c1OC(C)=O` [Compound 186], the pest or weed control at 100 ppm is below 80% in assay [1]; above 80% in assay [2]; below 0% in assay [3]; above 80% in assay [4]; above 80% in assay [5]; above 80% in assay [6].

As to `COc1cc[n+]([O-])c(C(=O)N[C@@H](C)C(=O)O[C@@H](C)[C@H](c2ccc(F)cc2C)C(C)C)c1O` [Compound 218], the pest or weed control at 100 ppm in assay [1] was below 80%; in assay [2], above 80%; in assay [3], below 80%; in assay [4], above 80%; in assay [5], below 0%; in assay [6] it was above 80%.

As to `COc1ccnc(C(=O)N[C@@H](C)C(=O)O[C@@H](C)[C@H](c2ccc(F)cc2C)C(C)C)c1OC(=O)C1CCCC1` [Compound 354], the pest or weed control at 100 ppm in assay [1] was below 80%; in assay [2], above 80%; in assay [3] it was above 80%; in assay [4] it was above 80%; in assay [5], below 80%; in assay [6], below 80%.

Regarding `COc1ccnc2c(=O)n([C@@H](C)C(=O)O[C@@H](C)[C@H](c3ccc(F)cc3C)C(C)C)c(=O)oc12` [Compound 217], the pest or weed control at 100 ppm in assay [1] was below 80%; in assay [2], above 80%; in assay [3], below 0%; in assay [4] it was above 80%; in assay [5] it was below 80%; in assay [6] it was above 80%.

As to `COc1ccnc(C(=S)N[C@@H](C)C(=O)O[C@@H](C)[C@H](c2ccc(F)cc2C)C(C)C)c1OC(C)=O` [Compound 219], the pest or weed control at 100 ppm in assay [1] is below 80%; in assay [2] it was above 80%; in assay [3] it was below 80%; in assay [4] it was above 80%; in assay [5], below 80%; in assay [6], above 80%.

`COc1ccnc(C(=O)N[C@@H](C)C(=O)O[C@@H](C)[C@H](c2ccc(F)cc2C)C(C)C)c1OC(=O)CC(C)C` [Compound 356]: the pest or weed control at 100 ppm in assay [1] was below 80%; in assay [2], above 80%; in assay [3], below 80%; in assay [4], above 80%; in assay [5], above 80%; in assay [6], below 80%.

As to `COc1ccnc(C(=O)N[C@@H](C)C(=O)O[C@@H](C)[C@H](c2ccc(F)cc2C)C(C)C)c1OC(=O)OC(C)C` [Compound 373], the pest or weed control at 100 ppm is below 80% in assay [1]; above 80% in assay [2]; above 80% in assay [3]; above 80% in assay [4]; below 80% in assay [5]; below 80% in assay [6].

With `COc1ccnc(C(=O)N[C@@H](C)C(=O)O[C@@H](C)[C@H](c2cccc(C)c2C)C(C)C)c1OC(C)=O` [Compound 363], the pest or weed control at 100 ppm in assay [1] was below 80%; in assay [2], above 80%; in assay [3], below 80%; in assay [4] it was above 80%; in assay [5] it was below 0%; in assay [6], above 80%.
